Measurements from patent US20060223827A1, “Bioreductively activated stilbene prodrugs” (Siemens Aktiengesellschaft, priority 2003, published 2006).

How the values were obtained:
[1] = Radiolysis (steady state): release of combretastatin A4 after one-electron reduction; type: physicochemical; conditions: isopropanol/water 50:50, N2O-saturated, 60Co source 3.9 Gy min^−1, HPLC
Protocol: In the hypoxic environments of solid tumours, prodrugs can be reduced by one-electron processes that are inhibited in the normoxic environments of normal tissues.
Compounds were dissolved in an isopropanol/water mixture (50:50) at a concentration of 50 μM or below. Solutions, in gas-tight syringes, were saturated with nitrous oxide before irradiation in a ^60Co source at a dose rate of 3.9 Gy min^−1 (as determined by Fricke dosimetry: H. Fricke and E. J. Hart, “Chemical Dosimetry” in Radiation Dosimetry Vol. 2 (F. H. Attrix and W. C. Roesch. Eds.), pp 167-239. Academic Press New York, 1966.). Solutions were analysed for released drug by HPLC. The radiation chemical yields (G-values) of combretastatin A4 release obtained in this assay for selected example compounds are shown in Table 1.

| Compound | G (radiation chemical yield of combretastatin A4 release) [1] | melting point |
| --- | --- | --- |
| COc1ccc(/C=C\c2cc(OC)c(OC)c(OC)c2)cc1OCc1ccc([N+](=O)[O-])s1 [Example 1, 1-(4-Methoxy-3-(5-nitrothien-2-yl)methoxy)phenyl-2-(3,4,5-trimethoxy)phenyl-Z-ethene] | 0.23 µmol/J | 88 to 90 °C |
| COc1ccc(/C=C\c2cc(OC)c(OC)c(OC)c2)cc1OC(C)c1ccc([N+](=O)[O-])s1 (stereo not drawn) [Example 2, 1-(4-Methoxy-3-(1-(5-nitrothien-2-yl)ethoxy))phenyl-2-(3,4,5-trimethoxy)phenyl-Z-ethene] | 0.33 µmol/J |  |
| COC1=CC(=O)c2c(c(COc3cc(/C=C\c4cc(OC)c(OC)c(OC)c4)ccc3OC)c(C)n2C)C1=O [Example 4, 5-Methoxy-3-((3,4,4′,5-tetramethoxy-(Z)-stilbene-3′-yl)oxy)methyl-1,2-dimethylindole-4,7-dione] | 0.44 µmol/J | 192 to 194 °C |
| COc1ccc(/C=C\c2cc(OC)c(OC)c(OC)c2)cc1OCc1c2c(n(C)c1C)C(=O)C=C(N1CCN(C)CC1)C2=O [Example 5, 3-((3,4,4′,5-Tetramethoxy-(Z)-stilbene-3′-yl)oxy)methyl-1,2-dimethyl-5-(4 methylpiperazin-1-yl)indole-4,7-dione] | 0.34 µmol/J |  |
